Assay results published in US11130960B2, “Methods for conferring or enhancing herbicide resistance on plants and/or alga with protoporphyrinogen oxidase variants” (FARM HANNONG CO., LTD., priority 2014, dated 2021).

Key:
Assay in all cases: Seed germination / growth on ½ MS medium containing herbicide
[1] = system: CyPPO8 transformants; format: in vivo, Arabidopsis thaliana; conditions: CyPPO8 and BAR gene-inserted; ½ MS medium with 70 nM Tiafenacil, 50 uM glufosinate, or both
Experimental: (§1) To examine tiafenacil resistance of T2 generation seeds which survived under treatment of 1 μM tiafenacil, among the CyPPO2 and CyPPO8 transformants, Arabidopsis thaliana seeds were sown in ½ MS medium (1.125 g/L of MS salt, 10 g/L of sucrose, 7 g/L of Agar) containing 70 nM tiafenacil. […] Therefore, survival under 70 nM tiafenacil means that a plant has resistance against tiafenacil.
(§2) In Arabidopsis thaliana transformant including CyPPO2 or CyPPO8 gene, which was obtained by transformation using the plant transformation vector prepared in Example 6, the PPO activity-inhibiting herbicide-resistant gene and glufosinate-resistant gene are expressed at the same time. Therefore, it was examined whether cross-treatment of Arabidopsis thaliana transformant with two herbicides, namely, PPO activity-inhibiting herbicide and glufosinate is effective for weed control. To this end, seeds of CyPPO2 and BAR gene-inserted Arabidopsis thaliana transformant, or CyPPO8 and BAR gene-inserted Arabidopsis thaliana transformant were sterilized and treated at low temperature of 4° C. for 2 days. The seeds were sown in a ½ MS medium (Duchefa), a ½MS medium containing 70 nM Tiafenacil, a ½MS medium containing 50 uM glufosinate, or a ½MS medium containing 70 nM Tiafenacil and 50 uM glufosinate, and grown at 23° C. under 16 hour-light/8 hour-dark conditions for 7-14 days. Arabidopsis thaliana on the herbicide media was CyPPO2 or CyPPO8-transformed seed and the wild-type Col0 as a control, respectively. The transformant and the control were cultured on herbicide media. After 2 weeks, they were examined.
(§3) In Example 9, it was confirmed that Arabidopsis thaliana transformant prepared in the present invention has resistance against the two PPO-based herbicides, Tiafenacil and Saflufenacil at the same time, and therefore, it was tested whether the cross-treatment of Arabidopsis thaliana transformant with Tiafenacil and Saflufenacil is effective for weed control. To this end, seeds of CyPPO2 or CyPPO8 gene-inserted Arabidopsis thaliana transformant were sterilized and treated at low temperature of 4° C. for 2 days. The seeds were sown in a ½ MS medium, a ½MS medium containing 70 nM Tiafenacil, a ½MS medium containing 70 nM Saflufenacil, or a ½MS medium containing 35 nM Tiafenacil and 35 nM Saflufenacil, and grown at 23° C. under 16 hour-light/8 hour-dark conditions for 7-14 days. Arabidopsis thaliana on the herbicide media was CyPPO2 or CyPPO8-transformed seed and the wild-type Col0 as a control, respectively. The transformant and the control were cultured on herbicide media. After 2 weeks, they were examined.

[2] = system: CyPPO2 transformants; format: in vivo, Arabidopsis thaliana; conditions: CyPPO2 and BAR gene-inserted; ½ MS medium with 70 nM Tiafenacil, 50 uM glufosinate, or both
Experimental: as §1, §2, §3

[3] = system: wild-type Arabidopsis thaliana (Col-0); format: in vivo; conditions: ½ MS medium with 70 nM Tiafenacil, 50 uM glufosinate, or 70 nM Tiafenacil and 50 uM glufosinate
Experimental: as §1, §2, §3

**Q.** For `CP(=O)(O)CCC(N)C(=O)O` (stereo not drawn) [glufosinate], which “germination / growth on herbicide medium after 2 weeks” value (from here on “germination / growth”) [1] is on record?
**A.** Its value is “normally grew”.

**Q.** What about the “germination / growth” value [2] of the same compound?
**A.** The value was “normally grew”.

**Q.** And the “germination / growth” value [3]?
**A.** Its value is “not germinated”.
